From ChEMBL document CHEMBL1806445, “Limonoids from seeds of Thai Xylocarpus moluccensis” (Bioorg Med Chem Lett, 2011)
pIC50: −log10 of the molar value. Active and inactive are the calls of the source. No cut-off for these calls is given here.

How the values were obtained:
RAW264.7 [1] = assay: Inhibition of LPS-induced nitric oxide production in mouse RAW264.7 cells assessed as nitrite level after 24 hrs by Griess method; type: functional, cell-based; conditions: for pIC50: RAW264.7, 24 h
Neutrophil = assay: Inhibition of superoxide anion generation in fMLP-stimulated human neutrophils; type: functional, cell-based
RAW264.7 [2] = assay: Cytotoxicity against mouse RAW264.7 cells after 24 hrs by MTT assay; type: cell-based; conditions: RAW264.7, 24 h
RAW264.7 [3] = assay: Inhibition of LPS-induced nitric oxide production in mouse RAW264.7 cells assessed as nitrite level upto 50 uM after 24 hrs by Griess method; type: functional, cell-based

Which inhibition (RAW264.7 [1]) does the source give for `COC(=O)C[C@H]1C(C)(C)[C@H](OC(C)=O)[C@]2(O)CC3=C4CC(=O)O[C@@H](c5ccoc5)[C@]4(C)CC[C@@H]3[C@@]1(C)C2=O` [2-HYDROXYFISSINOLIDE] here?
The inhibition was “Dose-dependent effect”.

What about the pIC50 (RAW264.7 [1]) of the same molecule?
Its pIC50 is 4.28.

And the pIC50 (Neutrophil)?
Its pIC50 is < 4.57.

`CC1(C)C(=O)C=C[C@]2(C)[C@H]3CC[C@@]4(C)[C@H](c5ccoc5)OC(=O)[C@H]5O[C@]54[C@]3(C)C(=O)C[C@@H]12` [DEACETOXY-7-OXOGEDUNIN] was tested. Which inhibition (RAW264.7 [1]) did it give?
The inhibition was “Dose-dependent effect”.

And the pIC50 (RAW264.7 [1])?
Its pIC50 is 4.64.

And the pIC50 (RAW264.7 [2])?
Its pIC50 is 4.78.

For `CC1(C)C(=O)C=C[C@]2(C)[C@H]3CC[C@@]4(C)[C@H](c5ccoc5)OC(=O)[C@H]5O[C@]54[C@]3(C)[C@H](O)C[C@@H]12` [DEACETYLGEDUNIN], which inhibition (RAW264.7 [1]) is on record?
Its inhibition is “Dose-dependent effect”.

And the pIC50 (RAW264.7 [1])?
The pIC50 was > 5.00.

What about the pIC50 (RAW264.7 [2]) of the same molecule?
The pIC50 was 4.43.

Which results are given for `COC(=O)C[C@H]1C(C)(C)C(=O)[C@@H]2CC3=C4CC(=O)O[C@@H](c5ccoc5)[C@]4(C)CC[C@@H]3[C@@]1(C)C2=O` [MEXICANOLIDE]?
inhibition (RAW264.7 [3]): inactive; pIC50 (Neutrophil): < 4.57

With `COC(=O)C[C@H]1[C@]2(C)C[C@]3(O)[C@@](O)(C(=O)C4=C(CC[C@]5(C)C4=CC(=O)O[C@H]5c4ccoc4)[C@]13C)[C@H]2OC(C)=O` [MOLUCCENSIN H] as the molecule, how does the inhibition (RAW264.7 [3]) read?
The inhibition was “inactive”.

What about the pIC50 (Neutrophil) of the same molecule?
Its pIC50 is < 4.57.

For `COC(=O)C[C@H]1[C@]2(C)C[C@@]3(O)[C@]1(C)[C@H]1CC[C@]4(C)C(=C1C(=O)[C@@]3(OC)[C@H]2OC(C)=O)CC(=O)O[C@H]4c1ccoc1` [MOLUCCENSIN I], which inhibition (RAW264.7 [3]) is on record?
Its inhibition is “inactive”.

And the pIC50 (Neutrophil)?
Its pIC50 is < 4.57.

`COC(=O)C[C@H]1C(C)(C)[C@H](O)[C@@H]2CC3=C4CC(=O)O[C@@H](c5ccoc5)[C@]4(C)CC[C@@H]3[C@@]1(C)C2=O` [PROCERANOLIDE] was tested. Which inhibition (RAW264.7 [1]) did it give?
Its inhibition is “Dose-dependent effect”.

What about the pIC50 (RAW264.7 [1]) of the same molecule?
The pIC50 was 4.29.

And the pIC50 (Neutrophil)?
Its pIC50 is < 4.57.

Which inhibition (RAW264.7 [1]) does the source give for `COC(=O)C[C@@H]1C(C)(C)C(=O)C=C[C@@]1(C)[C@H]1CC[C@@]2(C)[C@H](c3ccoc3)OC(=O)C[C@]2(O)[C@]1(C)O` [THAIMOLUCCENSIN A] here?
The inhibition was “Dose-dependent effect”.

And the pIC50 (RAW264.7 [1])?
Its pIC50 is 4.34.

`COC(=O)C[C@H]1[C@]2(C)CO[C@@]3(O)[C@]1(C)[C@H]1CC[C@]4(C)[C@@H](CC(=O)O[C@H]4c4ccoc4)C1=C[C@@]3(O)[C@H]2OC(C)=O` [THAIMOLUCCENSIN B] was tested. Which pIC50 (Neutrophil) did it give?
Its pIC50 is < 4.57.

Which results are given for `COC(=O)C[C@H]1[C@]2(C)C[C@@]3(OC(=O)C(C)C)[C@]1(C)[C@H]1CC[C@]4(C)C(=C1C(=O)[C@@]3(O)[C@H]2OC(C)=O)CC(=O)O[C@H]4c1ccoc1` [THAIMOLUCCENSIN C]?
inhibition (RAW264.7 [1]): Dose-dependent effect; pIC50 (RAW264.7 [1]): 4.49; pIC50 (Neutrophil): < 4.57
